Reference: PMC4886280 (The Journal of General Physiology, 2016)

Molecular target: T1, P2X7 (Homo sapiens, UniProt Q99572)
T1 sequence (Q99572 1-595): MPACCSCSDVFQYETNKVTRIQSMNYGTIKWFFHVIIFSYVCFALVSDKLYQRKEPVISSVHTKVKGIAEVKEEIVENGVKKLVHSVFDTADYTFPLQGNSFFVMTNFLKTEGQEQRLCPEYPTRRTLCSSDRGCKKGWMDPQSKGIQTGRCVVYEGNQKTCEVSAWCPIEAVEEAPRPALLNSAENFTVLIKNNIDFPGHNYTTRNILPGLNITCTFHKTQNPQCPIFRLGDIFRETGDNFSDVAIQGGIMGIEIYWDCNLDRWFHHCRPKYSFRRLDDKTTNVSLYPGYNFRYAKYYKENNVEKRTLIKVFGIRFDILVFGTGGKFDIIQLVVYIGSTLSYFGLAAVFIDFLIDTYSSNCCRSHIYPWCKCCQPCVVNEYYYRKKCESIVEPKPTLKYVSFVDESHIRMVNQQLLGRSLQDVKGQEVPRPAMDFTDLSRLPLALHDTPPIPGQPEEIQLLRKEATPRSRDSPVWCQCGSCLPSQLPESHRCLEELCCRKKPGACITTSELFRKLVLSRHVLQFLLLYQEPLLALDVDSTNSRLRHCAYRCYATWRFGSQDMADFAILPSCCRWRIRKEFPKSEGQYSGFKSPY
Test: whole-cell patch clamp, ATP concentration-response in low-DIC bath
Format: cell-based

SMILES: Nc1ncnc2c1ncn2[C@@H]1O[C@H](COP(=O)(O)OP(=O)(O)OP(=O)(O)O)[C@@H](O)[C@H]1O [ATP]
- EC50: 339 ± 27 µM
